In patent publication US20120088803A1, “CONTROL AGENT FOR SOFT ROT AND CONTROL METHOD FOR THE SAME” (Ishihara Sangyo Kaisha, Ltd, priority 2009, published 2012):
“And” between values parts separate entries of the source, which are not always exact repeats. Identical values can stand only once.

What was measured:
Format in all cases: in vivo, Erwinia carotovora
[1] = tested on: Chinese cabbage soft rot; experiment: Test for disease control of Chinese cabbage with or without mulch-sheet, field (Example 5); set-up: key to Disease incidence rate: % of examined plants that are diseased; key to Disease control value: (1 − severity treated / severity untreated) × 100; key to Disease severity: Σ(plants per class × index 0-4)/(plants examined × 4) × 100; conditions: 250 g ai/10 a; for Disease incidence rate / Disease severity / Disease control value: 150 L/10 a, Harebutai 65, 64 days; for Disease control value: vs untreated plot
Text: (§1) (Disease incidence rate)=[(number of diseased plants)/(number of plants examined)]*100
(§2) (Disease severity)={S [(number of diseased plants in each class into which the plants are classified according to the degree of disease)*(disease index)]/[(number of plants examined)*4]}*100
(§3) (Disease control value)={1-[(Disease severity in treated plot)/(Disease severity in untreated plot)]}*100
(§4) Incidentally, the evaluation criteria for the disease index are as follows. • (Disease index) • 0: No lesion • 1: Lesions appear only in part of outer leaves (shipment can be made). • 2: Lesions appear in outer leaves and part of head leaves (the damaged part is removed and shipment as a small size plant can be made, rated Grade B). • 3: Lesions appear in most head leaves or more (shipment cannot be made). • 4: Lesions appear in the entire plant and the plant dies.
(§5) Preparation was performed using 500 g/L of 3-chloro-N-(3-chloro-5-trifluoromethyl-2-pyridyl)-alpha,alpha,alpha-trifluoro-2,6-dinit ro-p-toluidine (fluazinam, Frowncide SC (trade name), manufactured by Ishihara Sangyo Kaisha, Ltd.) such that the amount of the active ingredient was 250 g ai/10 a (500 mL product/10 a), and the amount of dilution water was 150 L/10 a.
(§6) A mulch-sheet for agricultural use was spreaded on soil, and planting holes for settlement (diameter: about 5 cm) were made, and then, the spray solution prepared in the above was sprayed onto the planting holes such that the spraying amount was 0.25 g/m^2 (150 L/10 a), followed by air-drying. Then, seedlings of Chinese cabbage (cultivar: Harebutai 65) grown for 4 weeks in a cell tray (128 holes/nursery box) were planted such that 19 seedlings were planted in one test plot having an area of 2.4 m^2 with two replications.
as §6, with “The” for “A mulch-sheet for agricultural use was spreaded on soil, and planting holes for settlement (diameter: about 5 cm) were made, and then, the”, “a) without spreading a mulch-sheet for agricultural use,” for “a),”
(§7) The degree of disease incidence was examined for all the plants in each test plot 64 days after the start of the test, and the disease severity and the disease control value were evaluated. Incidentally, the disease severity and the disease control value were obtained in the same manner as described above.

[2] = tested on: Chinese cabbage soft rot; experiment: Test for disease control of Chinese cabbage, field (Example 2); set-up: key to Disease incidence rate: % of examined plants that are diseased; key to Disease control value: (1 − severity treated/severity untreated) × 100; key to Disease severity: Σ(diseased plants per class × index 0-4)/(plants × 4) × 100; conditions: 250 g ai/10 a, 50 days
Text: as §1, §2, §3, §4
Preparation was performed using 500 g/L of • 3-chloro-N-(3-chloro-5-trifluoromethyl-2-pyridyl)-alpha,alpha,alpha-trifluoro-2,6-dinit ro-p-toluidine (fluazinam, Frowncide SC (trade name), manufactured by Ishihara Sangyo Kaisha, Ltd.) such that the amount of the active ingredient was 250 g ai/10 a (500 mL product/10 a), and the amount of dilution water was 150 L/10 a.
as §6, with “Yumebuki)” for “Harebutai 65)”, “34 to 40” for “19”, “4.8” for “2.4”, “three” for “two”
as §7, with “50” for “64”

[3] = tested on: Chinese cabbage soft rot; experiment: Test for disease control of Chinese cabbage, field (Example 1 / Comparative Example 1); set-up: key to Disease incidence rate: % of examined plants that are diseased; key to Disease control value: (1 − severity treated/severity untreated) × 100; key to Disease severity: Σ(plants per class × index 0–4)/(plants examined × 4) × 100; conditions: for Disease incidence rate / Disease severity / Disease control value: 63 days; for Disease control value: vs untreated plot; for Control effect on Chinese cabbage soft rot (in words): Table 1 test, moderate incidence conditions, fluazinam 250 g ai/10 a on soil, streptomycin 1/1000 foliage spraying
Procedure: as §5, with “(fluazinam (common name),” for “(fluazinam,”
The spray solution prepared in the above was sprayed onto cultivation soil in a field such that the spraying amount was 0.25 g/m^2 (150 L/10 a), and thereafter, a mulch-sheet for agricultural use was spreaded on the soil. After planting holes for settlement (diameter: about 5 cm) were made, seedlings of Chinese cabbage (cultivar: Musou) grown for 4 weeks in a cell tray (128 holes/nursery box) were planted such that 30 seedlings were planted in one test plot having an area of 6 m^2 with three replications.
Preparation was performed by diluting streptomycin (Mycin 20 wettable powder (trade name), manufactured by Hokko Chemical Industry Co., Ltd.) with water to 1/1000.
In a field covered with a mulch-sheet for agricultural use, seedlings of Chinese cabbage (cultivar: Musou) grown in a cell tray were planted, in the same manner as in Example 1, and foliage application was performed by spraying the spray solution of streptomycin prepared in (1) (spraying amount per application: 200 L/10 a) twice (39 days and 47 days after the planting of the seedlings).
The degree of disease incidence was examined for all the plants in each test plot 63 days after the start of the test, and the disease incidence rate, the disease severity, and the disease control value were calculated according to the following equations, and the test results are shown in Table 1.
as §1, §2, §3, §4

[4] = with mulch-sheet for agricultural use, Average
[5] = with mulch-sheet for agricultural use, single replications I-II
[6] = without mulch-sheet for agricultural use, Average
[7] = 150 L/10 a onto planting holes, Yumebuki, Average of replications
[8] = 250 g ai/10 a, 150 L/10a onto cultivation soil, Musou, Average of replications
[9] = 1/1000 dilution, foliage application twice, Musou, Average of replications

O=[N+]([O-])c1cc(C(F)(F)F)c(Cl)c([N+](=O)[O-])c1Nc1ncc(C(F)(F)F)cc1Cl [Fluazinam, 3-chloro-N-(3-chloro-5-trifluoromethyl-2-pyridyl)-alpha,alpha,alpha-trifluoro-2,6-dinit ro-p-toluidine] was tested, and the “Control effect without mulch-sheet compared with treated plot covered with mulch-sheet (in words)” value ([1]; Table 5 test, moderate incidence conditions) was “substantially equal”, the Disease incidence rate [1, 4] was 31.2 and the Disease severity [1, 4] was 8.5. The Disease incidence rate [1, 5] was 23.5 and 38.9, the Disease severity [1, 5] was 5.9 and 11.1 and the Disease control value ([1]; with mulch-sheet for agricultural use) was 73.1. The Disease incidence rate [1, 6] was 28.9, the Disease severity [1, 6] was 8.6 and the Disease control value ([1]; without mulch-sheet for agricultural use) was 72.8. The Disease incidence rate [2, 7] was 45.4, the Disease severity [2, 7] was 16.4 and the Disease severity ([2]; 150 L/10 a onto planting holes, Yumebuki, single replications I-III) was 19.4 and 13.1 and 16.7. For the same molecule, the Disease control value ([2]; 150 L/10 a onto planting holes, Yumebuki, vs untreated plot) was 66.4, the Disease incidence rate ([2]; 150 L/10 a sprayed onto planting holes of mulch-sheet, cultivar Yumebuki, single replications I-III) was 55.0 and 37.5 and 43.6 and the Disease incidence rate [3, 8] was 13.3. For the same molecule, the Disease severity [3, 8] was 6.4, the Disease severity ([3]; 250 g ai/10 a, 150 L/10a onto cultivation soil, Musou, single replications I-III) was 5.0 and 8.3 and 5.8 and the Disease control value ([3]; 250 g ai/10 a, 150 L/10a onto cultivation soil, Musou) was 81.7. For the same molecule, the Disease incidence rate ([3]; 250 g ai/10 a, 150 L/10a sprayed onto cultivation soil before mulch-sheet, cultivar Musou, single replications I-III) was 16.7 and 13.3 and 10.0 and the “Control effect on Chinese cabbage soft rot (in words)” value [3] was “a control effect on Chinese cabbage soft rot was observed”.

[H]/N=C(/N)N[C@H]1[C@H](O)[C@@H](O)[C@H](O[C@@H]2O[C@@H](C)[C@](O)(C=O)[C@H]2O[C@@H]2O[C@@H](CO)[C@H](O)[C@@H](O)[C@@H]2NC)[C@@H](N/C(N)=N\[H])[C@@H]1O [Streptomycin, streptomycin] gave a Disease incidence rate [3, 9] of 60.0, a Disease severity [3, 9] of 37.8 and a Disease control value ([3]; 1/1000 dilution, foliage application twice, Musou) of 0. For the same molecule, the “Control effect on Chinese cabbage soft rot (in words)” value [3] was “not observed at all”.
